According to patent publication US11439606B2 (priority 2018, dated 2022):

Experiments:
Type in all cases: in vivo, rat
type I diabetic rats [1] = assay: Cholesterol and triglyceride levels in type I diabetic rats treated with DMF; details: versus untreated rats and known levels in non-diabetic rats; DMF 8 mg/kg daily ip
Procedure: (§1) Controlled test results were performed by, and under the direction of, the inventors, involving four type I diabetic rats, two of which were female and two were male, for the purpose of measuring the effectiveness of administering treatment in accordance with the present invention.

type I diabetic rats [2] = assay: Liver function tests (bilirubin, aspartate aminotransferase, gamma glutamyltransferase, alkaline phosphatase) in type I diabetic rats treated with DMF; details: versus untreated control rats, DMF 8 mg/kg daily ip
Procedure: as §1

type I diabetic rats [3] = assay: Glycemia in STZ-induced type I diabetic rats treated with DMF; details: DMF 8 mg/kg daily ip
type I diabetic rats [4] = assay: Renal function tests (urea, serum creatinine) in type I diabetic rats treated with DMF; details: DMF 8 mg/kg daily ip
Procedure: as §1

[5] = first rat, STZ-induced diabetes, average glycemia 440 mg % before treatment

dimethylformamide [DMF] was tested, and the “cholesterol levels (FIG. 3)” value (type I diabetic rats [1]) was “somewhat elevated”, the “triglycerides levels (FIG. 3)” value (type I diabetic rats [1]) was “significantly lowered” and the “liver function (FIG. 5)” value (type I diabetic rats [2]) was “either improved or not substantially different”. For the same substance, the “glycemia level versus untreated rats (FIG. 1)” value (type I diabetic rats [3]; female and male type I diabetic rats) was “remaining significantly below female and male rats not receiving treatment”, the “blood glucose level after seven days of treatment” value (type I diabetic rats [3]; [5]) was “below 100 mg %” and the “blood glucose level four days after treatment” value (type I diabetic rats [3]; [5]) was 94 mg %. The “blood glucose level after seven days of treatment” value (type I diabetic rats [3]; second rat, STZ-induced diabetes, average glycemia 526 mg % before treatment) was “below 120 mg %”, the “levels of serum creatinine (FIG. 4)” value (type I diabetic rats [4]; versus untreated type I diabetic rats and known levels in non-diabetic rats) was “not only lower than the untreated, type I diabetic control group, but also lower than known levels of serum creatinine in non-diabetic female and male rats” and the “levels of urea (FIG. 4)” value (type I diabetic rats [4]; versus untreated type I diabetic rats) was “below that of the untreated type I diabetic rats”.
